Results published in patent US20260193268A1, “TRICYCLIC PI3Ka INHIBITOR, PREPARATION METHOD THEREFOR, AND PHARMACEUTICAL USE THEREOF” (WIGEN BIOMEDICINE TECHNOLOGY (SHANGHAI) CO., LTD., priority 2022, published 2026).
Like-named read-outs stand apart in the source and are kept apart here.

Experiments:
[1] = tested on: HCC1954 cells (with PI3Kα H1047R mutation); assay: In vitro inhibition of HCC1954 cell proliferation (CellTiter-Lumi); assay type: cell-based; details: HCC1954 cells, 144 h, CellTiter-Lumi, numeric values, read-out: Inhibitory activity against HCC1954 cells (IC50)
Experimental: Assay for In Vitro Inhibition of HCC1954 Cell Proliferation by Compounds of the Present Disclosure
The growth of the cells was evaluated, and the IC50 for the inhibition of cell growth by the compounds was calculated.

[2] = tested on: MCF-7 cells (with PI3Kα E545K mutation); assay: In vitro inhibition of MCF-7 cell proliferation (CellTiter-Lumi); assay type: cell-based; details: numeric values, read-out: Inhibitory activity against MCF-7 cells (IC50)
Experimental: Biological Example 3. Assay for In Vitro Inhibition of MCF-7 Cell Proliferation by Compounds of the Present Disclosure
MCF-7 cells (with PI3Kα E545K mutation) were seeded into a 384-well plate (Fisher 142762) at 2000 cells per well. The next day, serially diluted compounds were added, and 144 h after the addition, CellTiter-Lumi (Beyotime C0068XL) was added to measure the ATP content in the cells. The growth of the cells was evaluated, and the IC50 for the inhibition of cell growth by the compounds was calculated.

Row | Structure (SMILES) | IC50 ([1]; Homo sapiens, HCC1954, 144 h) [nM] | IC50 ([2]; Homo sapiens, MCF7, 144 h) [nM] | IC50 [1] [nM] | IC50 ([2]; 144 h) [nM]
1 | C=CC(=O)Nc1ccc(N2CCC(N3CCN(c4ccc5c(c4)-c4nc(N6C(=O)OC[C@H]6C(F)F)cn4CCO5)CC3)C2)cc1 (single isomer, unassigned) [Compound 29] | 75 | 13 |  | 
2 | Cc1nc(NC(=O)N2CCC[C@H]2C(N)=O)sc1-c1ccnc(C(C)(C)C(F)(F)F)c1 [Alpelisib, reference compound] | 1610 | 216 |  | 
3 | CC(C)=CC(=O)CCC(=O)N1CCN(Cc2cc3nc(-c4cccc5[nH]ncc45)nc(N4CCOCC4)c3s2)CC1 [CNX1351] |  |  | 1190 | 290
4 | C=CC(=O)N1CC[C@H](C(=O)NCC(=O)N2CCN(c3ccc4c(c3)-c3nc(N5C(=O)OC[C@H]5C(F)F)cn3CCO4)CC2)C1 [Compound 3] | 282 | 62 |  | 
5 | C=CC(=O)N1CCC(C(=O)NCC(=O)N2CCN(c3ccc4c(c3)-c3nc(N5C(=O)OC[C@H]5C(F)F)cn3CCO4)CC2)CC1 [Compound 6] | 663 | 99 |  | 
6 | C=CC(=O)N1CCC(CCC(=O)N2CCN(c3ccc4c(c3)-c3nc(N5C(=O)OC[C@H]5C(F)F)cn3CCO4)CC2)CC1 [Compound 7] | 925 | 106 |  | 
7 | C=CC(=O)N1CCC(N2CCC(CN3CCN(c4ccc5c(c4)-c4nc(N6C(=O)OC[C@H]6C(F)F)cn4CCO5)CC3)CC2)CC1 [Compound 8] | > 1000 | 63 |  | 
8 | C=CC(=O)N1CCC(CN2CCC(N3CCN(c4ccc5c(c4)-c4nc(N6C(=O)OC[C@H]6C(F)F)cn4CCO5)CC3)CC2)CC1 [Compound 9] | > 1000 | 75 |  | 
9 | C=CC(=O)N1CCC(N2CCC(N3CCN(c4ccc5c(c4)-c4nc(N6C(=O)OC[C@H]6C(F)F)cn4CCO5)CC3)CC2)CC1 [Compound 10] | > 1000 | 146 |  | 
10 | C=CC(=O)Nc1ccc(CCC(=O)N2CCN(c3ccc4c(c3)-c3nc(N5C(=O)OC[C@H]5C(F)F)cn3CCO4)CC2)cc1 [Compound 11] | 298 | 58 |  | 
11 | C=CC(=O)Nc1ccc(N2CCC(CN3CCN(c4ccc5c(c4)-c4nc(N6C(=O)OC[C@H]6C(F)F)cn4CCO5)CC3)CC2)cc1 [Compound 12] | 399 | 49 |  | 
12 | C=CC(=O)N1CCN(CCC(=O)N2CCN(c3ccc4c(c3)-c3nc(N5C(=O)OC[C@H]5C(F)F)cn3CCO4)CC2)CC1 [Compound 13] | 862 | 40 |  | 
13 | C=CC(=O)N1CCN(CCCC(=O)N2CCN(c3ccc4c(c3)-c3nc(N5C(=O)OC[C@H]5C(F)F)cn3CCO4)CC2)CC1 [Compound 15] | 128 | 14 |  | 
14 | C=CC(=O)Nc1ccc(CCN2CCN(c3ccc4c(c3)-c3nc(N5C(=O)OC[C@H]5C(F)F)cn3CCO4)CC2)cc1 [Compound 16] | 63 | 7 |  | 
15 | C=CC(=O)Nc1ccc(N2CC3(CCN(c4ccc5c(c4)-c4nc(N6C(=O)OC[C@H]6C(F)F)cn4CCO5)CC3)C2)cc1 [Compound 18] | 68 | 25 |  | 
16 | C=CC(=O)N1CCC(CCN2CC3(C2)CN(c2ccc4c(c2)-c2nc(N5C(=O)OC[C@H]5C(F)F)cn2CCO4)C3)CC1 [Compound 19] | > 1000 | 217 |  | 
17 | C=CC(=O)Nc1ccc(N2CC[C@H](CN3CCN(c4ccc5c(c4)-c4nc(N6C(=O)OC[C@H]6C(F)F)cn4CCO5)CC3)C2)cc1 [Compound 20] | 438 | 69 |  | 
18 | C=CC(=O)N1CC[C@@H](C(=O)N2CC3(CCN(c4ccc5c(c4)-c4nc(N6C(=O)OC[C@H]6C(F)F)cn4CCO5)CC3)C2)C1 [Compound 21] | 251 | 23 |  | 
19 | C=CC(=O)N1CC[C@H](CN2CC3(CCN(c4ccc5c(c4)-c4nc(N6C(=O)OC[C@H]6C(F)F)cn4CCO5)CC3)C2)C1 [Compound 22] | > 1000 | 143 |  | 
20 | C=CC(=O)N1CC[C@@H](CN2CC3(CCN(c4ccc5c(c4)-c4nc(N6C(=O)OC[C@H]6C(F)F)cn4CCO5)CC3)C2)C1 [Compound 23] | > 1000 | 186 |  | 
21 | C=CC(=O)N1CCC(CN2CC3(CCN(c4ccc5c(c4)-c4nc(N6C(=O)OC[C@H]6C(F)F)cn4CCO5)CC3)C2)CC1 [Compound 24] | > 1000 | 1120 |  | 

Row | Structure (SMILES) | IC50 ([1]; Homo sapiens, HCC1954, 144 h) [nM] | IC50 ([2]; Homo sapiens, MCF7, 144 h) [nM] | IC50 [1] [nM] | IC50 ([2]; 144 h) [nM]
22 | C=CC(=O)Nc1ccc(N2CC(CN3CC4(C3)CN(c3ccc5c(c3)-c3nc(N6C(=O)OC[C@H]6C(F)F)cn3CCO5)C4)C2)cc1 [Compound 25] | > 1000 | 390 |  | 
23 | C=CC(=O)N1CCN(CCCCN2CCN(c3ccc4c(c3)-c3nc(N5C(=O)OC[C@H]5C(F)F)cn3CCO4)CC2)CC1 [Compound 26] | 248 | 83 |  | 
24 | C=CC(=O)Nc1ccc(N2CCC(N3CCN(c4ccc5c(c4)-c4nc(N6C(=O)OC[C@H]6C(F)F)cn4CCO5)CC3)C2)cc1 (stereo partly drawn) [Compound 28] | 180 | 18 |  | 
25 | C=CC(=O)N1CC[C@@H](CN2CC(CN3CCN(c4ccc5c(c4)-c4nc(N6C(=O)OC[C@H]6C(F)F)cn4CCO5)CC3)C2)C1 [Compound 37] | 750 | 75 |  | 
26 | C=CC(=O)Nc1ccc(CN2CC(N3CCN(c4ccc5c(c4)-c4nc(N6C(=O)OC[C@H]6C(F)F)cn4CCO5)CC3)C2)cc1 [Compound 39] | 68 | 11 |  | 
27 | C=CC(=O)Nc1ccc(CN2CC3(C2)CN(c2ccc4c(c2)-c2nc(N5C(=O)OC[C@H]5C(F)F)cn2CCO4)C3)cc1 [Compound 40] | 162 | 34 |  | 
28 | C=CC(=O)Nc1ccc(CN2C[C@@H]3CN(c4ccc5c(c4)-c4nc(N6C(=O)OC[C@H]6C(F)F)cn4CCO5)C[C@@H]3C2)cc1 [Compound 41] | 191 | 40 |  | 
29 | C=CC(=O)Nc1ccc(CN2CC3(CCN(c4ccc5c(c4)-c4nc(N6C(=O)OC[C@H]6C(F)F)cn4CCO5)CC3)C2)cc1 [Compound 43] | 184 | 19 |  | 
30 | C=CC(=O)Nc1ccc(CN2CCN(c3ccc4c(c3)-c3nc(N5C(=O)OC[C@H]5C(F)F)cn3CCO4)CC2)cc1 [Compound 44] | 644 | 151 |  | 
31 | C=C(C)C(=O)Nc1ccc(N2CC(CN3CCN(c4ccc5c(c4)-c4nc(N6C(=O)OC[C@H]6C(F)F)cn4CCO5)CC3)C2)cc1 [Compound 45] | > 1000 | 244 |  | 
32 | C=C(F)C(=O)Nc1ccc(N2CC(CN3CCN(c4ccc5c(c4)-c4nc(N6C(=O)OC[C@H]6C(F)F)cn4CCO5)CC3)C2)cc1 [Compound 46] | 306 | 74 |  | 
33 | C=CC(=O)N1CCC(N2CC[C@H](CN3CCN(c4ccc5c(c4)-c4nc(N6C(=O)OC[C@H]6C(F)F)cn4CCO5)CC3)C2)CC1 [Compound 59] | 872 | 197 |  | 
34 | C=CC(=O)N1CC(N2CC(CN3CCN(c4ccc5c(c4)-c4nc(N6C(=O)OC[C@H]6C(F)F)cn4CCO5)CC3)C2)C1 [Compound 60] | 174 | 13 |  | 
35 | C=CC(=O)N1CC(CN2CCC(N3CCN(c4ccc5c(c4)-c4nc(N6C(=O)OC[C@H]6C(F)F)cn4CCO5)CC3)CC2)C1 [Compound 64] | 314 | 33 |  | 
36 | C=CC(=O)Nc1ccc(N2CC[C@@H](CN3CCN(c4ccc5c(c4)-c4nc(N6C(=O)OC[C@H]6C(F)F)cn4CCO5)CC3)C2)cc1 [Compound 85] | 303 | 88 |  | 
37 | C=CC(=O)N1CC(C(=O)N2CC3(CCN(c4ccc5c(c4)-c4nc(N6C(=O)OC[C@H]6C(F)F)cn4CCO5)CC3)C2)C1 [Compound 86] | 126 | 17 |  | 
38 | C=CC(=O)N1CC(N2CC[C@@H](CN3CCN(c4ccc5c(c4)-c4nc(N6C(=O)OC[C@H]6C(F)F)cn4CCO5)CC3)C2)C1 [Compound 87] | 318 | 37 |  | 
39 | C=CC(=O)N1CC(N2CCC(CN3CC=C(c4ccc5c(c4)-c4nc(N6C(=O)OC[C@H]6C(F)F)cn4CCO5)CC3)CC2)C1 [Compound 88] | 212 | 32 |  | 
40 | C=CC(=O)N1CCC(N2CCC(N3CCN(c4ccc5c(c4)-c4nc(N6C(=O)OC[C@H]6C(F)F)cn4CCO5)CC3)C2)CC1 (stereo partly drawn) [Compound 89] | 230 | 41 |  | 
41 | C=CC(=O)N1CC(N2CCC(N3CCN(c4ccc5c(c4)-c4nc(N6C(=O)OC[C@H]6C(F)F)cn4CCO5)CC3)C2)C1 (stereo partly drawn) [Compound 90] | 225 | 12 |  | 
42 | C=CC(=O)N1CC(CN2CC(N3CCN(c4ccc5c(c4)-c4nc(N6C(=O)OC[C@H]6C(F)F)cn4CCO5)CC3)C2)C1 [Compound 91] | 154 | 11 |  | 
